US9062048B2, “Cyclohexyl-azetidinyl antagonists of CCR2” (Janssen Pharmaceutica NV, priority 2010, dated 2015)

Target: CCR2 (Homo sapiens (Human), UniProt P41597)
Assay: MCP-1 Receptor Binding Assay in THP-1 Cells;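 note: THP-1 is a human monocytic cell line, and nonspecific binding was defined with 1 µM unlabeled MCP-1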
Conditions: 0.5 nM 125I labeled MCP-1, 2 hours at 30° C., read-out: Inhibition of MCP-1 Binding IC50 MCP1B

CCR2, sequence (P41597 whole entry): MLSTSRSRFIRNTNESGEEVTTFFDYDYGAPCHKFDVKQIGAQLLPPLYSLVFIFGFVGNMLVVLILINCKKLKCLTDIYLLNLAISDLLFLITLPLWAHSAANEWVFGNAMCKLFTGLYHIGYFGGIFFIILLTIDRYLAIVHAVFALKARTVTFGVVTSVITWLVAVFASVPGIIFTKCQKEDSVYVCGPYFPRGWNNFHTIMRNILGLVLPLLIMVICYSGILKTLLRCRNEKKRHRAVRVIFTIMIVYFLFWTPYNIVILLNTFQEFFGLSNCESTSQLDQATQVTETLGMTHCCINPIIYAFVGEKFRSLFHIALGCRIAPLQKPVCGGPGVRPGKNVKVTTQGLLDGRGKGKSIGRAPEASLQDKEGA

IC50 | Compound
240 nM | NC[C@H]1CC[C@@H](N2CC(NC(=O)CNc3ncnc4ccc(C(F)(F)F)cc34)C2)CC1 [Example 116, N-(1-((1s,4s)-4-(aminomethyl)cyclohexyl)azetidin-3-yl)-2-((6-(trifluoromethyl)quinazolin-4-yl)amino)acetamide]
> 25000 nM | CC[C@H](O)C1CCC(N2CC(NC(=O)CNc3nccc4ccc(C(F)(F)F)cc34)C2)CC1 (stereo partly drawn) [Example 168]
220 nM | CC(C)(C)OC(=O)NC1CCC(N2CC(NC(=O)CNc3ncnc4ccc(C(F)(F)F)cc34)C2)CC1 (stereo not drawn) [Example 125, tert-butyl (4-(3-(2-((6-(trifluoromethyl)quinazolin-4-yl)amino)acetamido)azetidin-1-yl)cyclohexyl)carbamate]
720 nM | O=C(CNc1ncnc2ccc(C(F)(F)F)cc12)NC1CN([C@H]2CC[C@@H](CN3CCCCC3=O)CC2)C1 [Example 54, N-(1-((1s,4s)-4-((2-oxopiperidin-1-yl)methyl)cyclohexyl)azetidin-3-yl)-2-((6-(trifluoromethyl)quinazolin-4-yl)amino)acetamide]
44 nM | CC(C)[C@H](O)C1CCC(N2CC(NC(=O)CNc3ncnc4ccc(C(F)(F)F)cc34)C2)CC1 (single isomer, unassigned; (+)) [(+) 8]
85 nM | [2H][C@]1(N2CC(NC(=O)CNc3ncnc4ccc(C(F)(F)F)cc34)C2)CC[C@@H](C(C)C)CC1 [Example 118, N-(1-deutero-1-((1s,4s)-4-isopropylcyclohexyl)azetidin-3-yl)-2-((6-(trifluoromethyl)quinazolin-4-yl)amino)acetamide]
81 nM | O=C(CNc1ncnc2ccc(C(F)(F)F)cc12)NC1CN([C@H]2CC[C@@H](CNC(=O)C(F)(F)F)CC2)C1 [Example 112]
35 nM | CC(C)C(O)[C@H]1CC[C@@H](N2CC(NC(=O)CNc3nccc4ccc(C(F)(F)F)cc34)C2)CC1 (stereo partly drawn) [Example 169]
360 nM | CN(C)C(=O)[C@H]1CC[C@@H](N2CC(NC(=O)CNc3ncnc4ccc(C(F)(F)F)cc34)C2)CC1 [Example 128, (1s,4s)-N,N-dimethyl-4-(3-(2-((6-(trifluoromethyl)quinazolin-4-yl)amino)acetamido)azetidin-1-yl)cyclohexanecarboxamide]
16 nM | [N-]=[N+]=NCC(O)[C@H]1CC[C@@H](N2CC(NC(=O)CNc3ncnc4ccc(C(F)(F)F)cc34)C2)CC1 (stereo partly drawn) [Example 19, N-(1-((1S,4s)-4-(2-azido-1-hydroxyethyl)cyclohexyl)azetidin-3-yl)-2-((6-(trifluoromethyl)quinazolin-4-yl)amino)acetamide]
98 nM | COCC[C@H]1CC[C@@H](N2CC(NC(=O)CNc3ncnc4ccc(C(F)(F)F)cc34)C2)CC1 [Example 121, N-(1-((1s,4s)-4-(2-methoxyethyl)cyclohexyl)azetidin-3-yl)-2-((6-(trifluoromethyl)quinazolin-4-yl)amino)acetamide]
12 nM | O=C1C=CCC([C@H]2CC[C@@H](N3CC(NC(=O)CNc4ncnc5ccc(C(F)(F)F)cc45)C3)CC2)N1 (stereo partly drawn) [Example 11, N-(1-((1S,4s)-4-(6-oxo-1,2,3,6-tetrahydropyridin-2-yl)cyclohexyl)azetidin-3-yl)-2-((6-(trifluoromethyl)quinazolin-4-yl)amino)acetamide]
14 nM | [2H][C@]1(N2CC(NC(=O)CNc3ncnc4ccc(C(F)(F)F)cc34)C2)CC[C@@H](C(O)C2CC2)CC1 (stereo partly drawn) [Example 5, N-(1-((1S,4s)-4-(cyclopropyl(hydroxy)methyl)1-deuterocyclohexyl)azetidin-3-yl)-2-((6-(trifluoromethyl)quinazolin-4-yl)amino)acetamide]
> 25000 nM | CC[C@H](O)[C@H]1CC[C@H](N2CC(NC(=O)CNc3nccc4ncc(C(F)(F)F)cc34)C2)CC1 [Example 151]
28 nM | CCC(OC(C)=O)[C@H]1CC[C@@H](N2CC(NC(=O)CNc3ncnc4ccc(C(F)(F)F)cc34)C2)CC1 (stereo partly drawn) [Example 100, 1-((1s,4S)-4-(3-(2-((6-(trifluoromethyl)quinazolin-4-yl)amino)acetamido)azetidin-1-yl)cyclohexyl)propyl acetate]
210 nM | CN(C)C(=O)OC[C@H]1CC[C@@H](N2CC(NC(=O)CNc3ncnc4ccc(C(F)(F)F)cc34)C2)CC1 [Example 124, ((1s,4s)-4-(3-(2-((6-(trifluoromethyl)quinazolin-4-yl)amino)acetamido)azetidin-1-yl)cyclohexyl)methyl dimethylcarbamate]
91 nM | O=C(CNc1ccnc2ccc(C(F)(F)F)cc12)NC1CN([C@H]2CC[C@@H](n3ccccc3=O)CC2)C1 [Example 58, N-(1-((1s,4s)-4-(2-oxopyridin-1(2H)-yl)cyclohexyl)azetidin-3-yl)-2-((6-(trifluoromethyl)quinolin-4-yl)amino)acetamide]

IC50 | Compound
10 nM | O=C(CNc1ncnc2ccc(C(F)(F)F)cc12)NC1CN([C@H]2CC[C@@H](C3CCCC(=O)N3)CC2)C1 (stereo partly drawn) [Example 13, N-(1-((1S,4s)-4-(6-oxopiperidin-2-yl)cyclohexyl)azetidin-3-yl)-2-((6-(trifluoromethyl)quinazolin-4-yl)amino)acetamide]
250 nM | CCC(NC(N)=O)[C@H]1CC[C@@H](N2CC(NC(=O)CNc3ncnc4ccc(C(F)(F)F)cc34)C2)CC1 (stereo partly drawn) [Example 141, 2((6-(trifluoromethyl)quinazolin-4-yl)amino)-N-(1-((1R,4s)-4-((S)-1-ureidopropyl)cyclohexyl)azetidin-3-yl)acetamide]
1220 nM | O=C(CNc1ncnc2ccc(C(F)(F)F)cc12)N[C@H]1C[C@H](N2CCC(O)(c3cncs3)CC2)C1 [Example 162, N-((1r,3R)-3-(4-hydroxy-4-(thiazol-5-yl)piperidin-1-yl)cyclobutyl)-2-((6-(trifluoromethyl)quinazolin-4-yl)amino)acetamide]
91 nM | CON(C)C(=O)C1CCC(N2CC(NC(=O)CNc3ncnc4ccc(C(F)(F)F)cc34)C2)CC1 (stereo not drawn) [Example 126]
9 nM | O=C(CNc1ncnc2ccc(C(F)(F)F)cc12)NC1CN([C@H]2CC[C@@H](C3C=CCO3)CC2)C1 (stereo partly drawn) [Example 10, N-(1-((1R,4s)-4-(2,5-dihydrofuran-2-yl)cyclohexyl)azetidin-3-yl)-2-((6-(trifluoromethyl)quinazolin-4-yl)amino)acetamide and N-(1-((1R,4r)-4-(2,5-dihydrofuran-2-yl)cyclohexyl)azetidin-3-yl)-2-((6-(trifluoromethyl)quinazolin-4-yl)amino)acetamide]
21 nM | CCC(O)[C@H]1CC[C@@H](N2CC(NC(=O)CNc3ncnc4ccc(C(F)(F)F)cc34)C2)CC1 (stereo partly drawn) [Example 93, N-(1-((1S,4s)-4-(1-hydroxypropyl)cyclohexyl)azetidin-3-yl)-2-((6-(trifluoromethyl)quinazolin-4-yl)amino)acetamide]
15 nM | CC[C@@H](O)[C@H]1CC[C@@H](N2CC(NC(=O)CNc3nncc4ccc(C(F)(F)F)cc34)C2)CC1 (stereo in doubt) [Example 153, N-(1-((1R,4s)-4-((S)-1-hydroxypropyl)cyclohexyl)azetidin-3-yl)-2-((7-(trifluoromethyl)phthalazin-1-yl)amino)acetamide]
5 nM | O=C(CNc1ncnc2ccc(C(F)(F)F)cc12)NC1CN([C@H]2CC[C@@H](C3CC=CCO3)CC2)C1 (stereo partly drawn) [Example 2, N-(1-((1S,4s)-4-(−3,6-dihydro-2H-pyran-2-yl)cyclohexyl)azetidin-3-yl)-2-((6-(trifluoromethyl)quinazolin-4-yl)amino)acetamide and N-(1-((1S,4r)-4-(3,6-dihydro-2H-pyran-2-yl)cyclohexyl)azetidin-3-yl)-2((6-(trifluoromethyl)quinazolin-4-yl)amino)acetamide]
49 nM | O=C(CNc1ncnc2ccc(C(F)(F)F)cc12)NC1CN([C@H]2CC[C@@H](C3CCCO3)CC2)C1 (stereo partly drawn) [Example 15]
75 nM | C=C(C)C(O)[C@H]1CC[C@@H](N2CC(NC(=O)CNc3ncnc4ccc(C(F)(F)F)cc34)C2)CC1 (stereo partly drawn) [Example 96, N-(1-((1R,4s)-4-(1-hydroxy-2-methylallyl)cyclohexyl)azetidin-3-yl)-2-((6-(trifluoromethyl)quinazolin-4-yl)amino)acetamide]
58 nM | COCC(O)[C@H]1CC[C@@H](N2CC(NC(=O)CNc3ncnc4ccc(C(F)(F)F)cc34)C2)CC1 (stereo partly drawn) [Example 20, N-(1-((1S,4s)-4-(1-hydroxy-2-methoxyethyl)cyclohexyl)azetidin-3-yl)-2-((6-(trifluoromethyl)quinazolin-4-yl)amino)acetamide]
190 nM | O=C(CNc1ncnc2ccc(C(F)(F)F)cc12)NC1CN([C@H]2CC[C@@H](N3CCOCC3)CC2)C1 [Example 132, N-(1-((1s,4s)-4-morpholinocyclohexyl)azetidin-3-yl)-2-((6-(trifluoromethyl)quinazolin-4-yl)amino)acetamide]
24 nM | O=C(CNc1ncnc2ccc(C(F)(F)F)cc12)NC1CN([C@H]2CC[C@@H]([C@@H](O)C3CC3)CC2)C1 [(+) 4, N-(1-((1S,4s)-4-(cyclopropyl(hydroxy)methyl)cyclohexyl)azetidin-3-yl)-2-((6-(trifluoromethyl)quinazolin-4-yl)amino)acetamide]
25 nM | O=C(CNc1ncnc2ccc(C(F)(F)F)cc12)NC1CN(C2CCC([C@@H](O)C3CC3)CC2)C1 (single isomer, unassigned; (+)) [(+) 6]
89 nM | CC(O)[C@H]1CC[C@@H](N2CC(NC(=O)CNc3ncnc4ccc(C(F)(F)F)cc34)C2)CC1 (stereo partly drawn) [Example 97, N-(1-((1S,4s)-4-(1-hydroxyethyl)cyclohexyl)azetidin-3-yl)-2-((6-(trifluoromethyl)quinazolin-4-yl)amino)acetamide]
231 nM | CN1C(=O)CCC1[C@H]1CC[C@@H](N2CC(NC(=O)CNc3ncnc4ccc(C(F)(F)F)cc34)C2)CC1 (stereo partly drawn) [Example 39, N-(1-((1S,4s)-4-(1-methyl-5-oxopyrrolidin-2-yl)cyclohexyl)azetidin-3-yl)-2-((6-(trifluoromethyl)quinazolin-4-yl)amino)acetamide]
